Source: US12213977B2, “Methods and compositions for treating melanoma” (THE REGENTS OF THE UNIVERSITY OF CALIFORNIA, priority 2017, dated 2025)
Entries after “also recorded” stand apart in the source; their conditions may differ. Where a SMILES comes first, the peptide text is derived from it. The star is where a group is joined. Cbz = O=C(OCc1ccccc1)*; CH2F = FC*

B1: IFNγ: Recombinant IFNγ, cytokine secreted by T cells, obtained from Peprotech (protein, UniProt P01579 24-161, looked up)
Interferon gamma: QDPYVKEAENLKKYFNAGHSDVADNGTLFLGILKNWKEESDRKIMQSQIVSFYFKLFKNFKDDQSIQKSVETIKEDMNVKFFNSNKKKRDDFEKLTNYSVTDLNVQRKAIHELIQVMAELSPAAKTGKRKRSQMLFRG

Legend:
melanoma cell lines [1] = assay: CTRP pharmacogenomics drug sensitivity (AUC) across melanoma cell lines grouped by predicted differentiation subtype; format: cell-based; settings: for specificity of cell death-inducing compound for dedifferentiated melanoma cells: CTRP drug sensitivity profiles by subtype; for sensitivity (CTRP AUC) with increased dedifferentiation status: melanoma cell lines by predicted subtype, ANOVA P<0.01, irrespective of mutation status
Description: Through the prediction of subtypes from the CCLE and GDSC dataset, the inventors utilized the matching drug sensitivity profiles available from the pharmacogenomics-based Cancer Therapeutics Response Portal (CTRP) (Seashore-Ludlow et al., 2015). […] These compounds are erastin, (1S,3R)-RSL3, ML162, and M210 (FIG. 3B).
Dataset from Hoek et al of melanoma cell lines was obtained from GSE4845 and batch normalized using ComBat from the R sva package. Dataset from Mica et al for the melanocyte differentiation stage analysis was obtained from GSE45227. Gene expression profiles from samples representing the growth conditions for each specified stage of differentiation based on the original manuscript was used for analysis (day 0 embryonic stem cell, day 6 neural crest cell, day 11 melanoblast, and day 25 melanocyte). Primary melanocyte expression profiles (adult and neonatal) were used as control. Cell line expression profiles from the CCLE and GSDC databases were downloaded from the respective resource websites (http://www.broadinstitute.org/ccle; http://www.cancerrxgene.org/downloads). For each dataset, microarray probes were collapsed to gene symbol to the maximum average probe. To have a gene list compatible for all datasets used, the inventors took an intersection of genes from both RNASeq and microarray chip platforms, resulting in 10,545 genes.
Principal component analysis (PCA) was performed on mean centered data and all statistical analyses were performed in R (http://www.R-project.org/). Projections were calculated by matrix multiplication of the centered data to be projected using the rotation matrix determined from the PCA of the original source data. ANOVA p-values were determined using the non-parametric Kruskal-Wallis test at a significance threshold of 0.05. Reported p-values between pairs of subtypes were determined using Dunn post-hoc testing with multiple hypothesis correction using the Benjamini & Hochberg method. Heatmaps and figures were generated using pheatmap and ggplot2 R packages.

[2] = tested on: human melanoma cell lines of the M series; assay: Cell viability dose-response (CellTiter-Glo) across M series melanoma cell lines; format: cell-based
Procedure: (§1) Human melanoma cell lines of the M series were established from patient's biopsies under UCLA IRB approval #11-003254 as previously described (Søndergaard et al., 2010). Cells were cultured in RPMI 1640 with L-glutamine, 10% fetal bovine serum, and 1% penicillin, streptomycin and fungizone in a water-saturated incubator at 37° C. with 5% CO2. Cells were maintained and tested for mycoplasma, and regularly authenticated to their early passages using GenePrint® 10 System (Promega). Presence of mutations in the genes of interest were checked by OncoMap 3 or lontrone, and was confirmed by PCR and Sanger sequencing as previously described (Wong et al., 2014). Vemurafenib (PLX 4032), erastin, Z-VAD-FMK, R428 and piperlongumine were all purchased from Selleck Chemicals. Deferoxamine was obtained from Sigma-Aldrich. Staurosporine was obtained from Cayman Chemicals. Trolox was obtained from Acros Organics. Recombinant TNFα and IFNγ were both obtained from Peprotech. For the BRAFi timecourse study, M229 was treated with vemurafenib or DMSO for the indicated timepoints at twice the 50% inhibition concentration (500 nM). For the crystal violet assays, cells for seeded at low density in 6-well plates. The next day media was replaced by drug media and replenished every 2-3 days. Plates were stained with crystal violet solution (1% crystal violet, 10% methanol). Control wells were grown for 1 week and stained when 100% confluent.
All cell viability assays were assayed in 96-well format with 5000 cells seeded per well. Dose-response curves were assayed using CellTiter-Glo luminescent cell viability assay (Promega, G7572). For all other measurements of viable cells, a fluorescent resazurin-based (Sigma-Aldrich, R7017) assay (AlamarBlue) was used with fluorescence measured at 570/600 ex/em wavelength. Percentage cell viability is reported as a percentage relative to the negative control treatment. Measurement of dead cells per time was measured by incubating treated cells with the IncuCyte Cytotox Red Reagent and imaging with IncuCyte ZOOM Live-Cell Imaging System (Essen BioScience). […]

[3] = tested on: M229, M397 and M249 melanoma cell lines; assay: Crystal violet staining (clonogenic) assays of long-term or cytokine combination treatment; format: cell-based, human
Procedure: as §1

[4] = tested on: undifferentiated signature cell lines M296, M410 M229R, and M238R; assay: Cell death and rescue assays (resazurin viability, IncuCyte Cytotox Red, trypan blue exclusion); format: cell-based, human
Procedure: All cell viability assays were assayed in 96-well format with 5000 cells seeded per well. Dose-response curves were assayed using CellTiter-Glo luminescent cell viability assay (Promega, G7572). For all other measurements of viable cells, a fluorescent resazurin-based (Sigma-Aldrich, R7017) assay (AlamarBlue) was used with fluorescence measured at 570/600 ex/em wavelength. Percentage cell viability is reported as a percentage relative to the negative control treatment. Measurement of dead cells per time was measured by incubating treated cells with the IncuCyte Cytotox Red Reagent and imaging with IncuCyte ZOOM Live-Cell Imaging System (Essen BioScience). Trypan blue exclusion was also used for cell death assays.

melanoma cell lines [5] = assay: Immunoblot of differentiation biomarkers (AXL, NGFR, MITF, MART-1) and pERK; format: cell-based, human; settings: IFNγ=100 U/mL, TNFα=1000 U/mL; M229, M397, M249
Procedure: Cells were lysed in modified RIPA buffer (50 mM Tris-HCl (pH 7.5), […], 10 mM β-glycerophosphate, 1% NP-40, 0.25% sodium deoxycholate, 10 mM sodium pyrophosphate, 30 mM sodium fluoride, 1 mM EDTA, 1 mM vanadate, 20 μg/ml aprotinin, 20 μg/ml leupeptin, and 1 mM phenylmethylsulfonyl fluoride). Whole-cell lysates were resolved by SDS-PAGE on TruPAGE 4-15% gradient gels (Sigma-Aldrich) and blotted onto nitrocellulose membranes. Membranes were blocked overnight with 5% milk and then incubated sequentially with primary and then IRDye-conjugated secondary antibodies (Li-Cor). Blots were imaged using the Odyssey Infrared Imaging System (Li-Cor). Primary antibodies used for Western blot analysis were MITF (DGG7V, CST), MART-1 (A103, SCBT), and AXL (C89E7, CST).

Molecule	specificity of cell death-inducing compound for dedifferentiated melanoma cells (melanoma cell lines [1])	also measured
NC(=O)Nc1cc(-c2cccc(F)c2)sc1C(=O)N[C@H]1CCCNC1 [AZD7762]	specificity for dedifferentiated melanoma cells	–
O=c1c2ccccc2nc(/C=C/c2cccnc2)n1Cc1ccccc1 [B02]	specificity for dedifferentiated melanoma cells	–
COc1ccc(C2C(C(=O)Nc3ccccc3)=C(C)N=c3sc(=Cc4cn(Cc5ccccc5)c5ccccc45)c(=O)n32)cc1 (centres unmarked) [BCL-LZH-4]	specificity for dedifferentiated melanoma cells	–
Cc1c[nH]c(-c2cnc(NCCNc3ccc(C#N)cn3)nc2-c2ccc(Cl)cc2Cl)n1 [CHIR-99021]	specificity for dedifferentiated melanoma cells	–
O=C(c1ccc(/C=C/c2n[nH]c3ccccc23)cc1)N1CCNCC1 [KW-2449]	specificity for dedifferentiated melanoma cells	–
COc1cc2nccc(Oc3ccc(NC(=O)Nc4ccc(F)cc4F)c(F)c3)c2cc1OC [Ki8751]	specificity for dedifferentiated melanoma cells	–
Cc1onc(C(=O)N2CCN(C(c3ccc(Cl)cc3)c3ccc(Cl)cc3)CC2)c1[N+](=O)[O-] [M210, ML210]	–	sensitivity (CTRP AUC) with increased dedifferentiation status (melanoma cell lines [1]): increased sensitivity
COc1ccc(N(C(=O)CCl)C(C(=O)NCCc2ccccc2)c2cccs2)cc1Cl (centres unmarked) [ML162]	–	sensitivity (CTRP AUC) with increased dedifferentiation status (melanoma cell lines [1]): increased sensitivity
COc1cc(N2CCC(N3CCN(C)CC3)CC2)ccc1Nc1ncc(Cl)c(Nc2ccccc2S(=O)(=O)C(C)C)n1 [NVP-TAE684]	specificity for dedifferentiated melanoma cells	–
COC(=O)c1ccc([C@H]2c3[nH]c4ccccc4c3C[C@H](C(=O)OC)N2C(=O)CCl)cc1 [RSL3, (1S,3R)-RSL3]	–	sensitivity (CTRP AUC) with increased dedifferentiation status (melanoma cell lines [1]): increased sensitivity; sensitivity in cell lines with vemurafenib-induced dedifferentiation ([2]; acquired resistance lines (P vs R) or long-term adaptive resistance (44 days)): increased sensitivity; sensitivity with dedifferentiation ([2]; across M series melanoma cell lines): increased sensitivity; sensitivity upon IFNγ cytokine treatment ([3]; M249, higher doses (5 μM erastin, 500 nM RSL3)): increased sensitivity; long-term persisting cells ([3]; combined with vemurafenib (1 μM), 16-24 days, M229, M397, M249): substantial decrease; cell death compared to cytokine-only or untreated cells ([3]; in the presence of TNFα or IFNγ, 7 days): increased cell death
Cn1cc(-c2ccc3nnc(Sc4ccc5ncccc5c4)n3n2)cn1 [SGX-523]	specificity for dedifferentiated melanoma cells	–
O=C1c2ccccc2-c2nc3nonc3nc21 [SMER-3]	specificity for dedifferentiated melanoma cells	–
CCc1c2c(nc3ccc(O)cc13)-c1cc3c(c(=O)n1C2)COC(=O)[C@]3(O)CC [SN-38]	specificity for dedifferentiated melanoma cells	–
CC1(C)CC(=O)c2c(C(F)(F)F)nn(-c3ccc(C(N)=O)c(N[C@H]4CC[C@H](O)CC4)c3)c2C1 [SNX-2112]	specificity for dedifferentiated melanoma cells	–
CC(C)[C@H](O)C(=O)N[C@@H](C)C(=O)N[C@@H]1C(=O)N(C)CCc2ccccc21 [Semagacestat]	specificity for dedifferentiated melanoma cells	–
Cc1cnc(Nc2ccc(OCCN3CCCC3)cc2)nc1Nc1cccc(S(=O)(=O)NC(C)(C)C)c1 [TG-101348]	specificity for dedifferentiated melanoma cells	–
Cc1c(C)c2c(c(C)c1O)CCC(C)(C(=O)O)O2 (centres unmarked) [Trolox]	–	rescue of erastin-induced decrease in cell viability ([4]; 100 μM DFO or 150 μM Trolox with erastin): almost completely rescued
COC(=O)C[C@H](NC(=O)[C@H](C)NC(=O)[C@@H](NC(=O)OCc1ccccc1)C(C)C)C(=O)CF [Z-VAD-FMK] (Cbz-Val-Ala-Asp(OMe)-CH2F)	–	rescue of apoptosis induced by staurosporine ([4]; trypan blue, 24 hr 1 μM staurosporine, Z-VAD-FMK pre-treatment 1 hr, positive control): could rescue; rescue of death induced by erastin treatment ([4]; trypan blue, 24 hr 5 μM erastin, Z-VAD-FMK pre-treatment 1 hr): could not rescue
Cc1c(N)nc([C@H](CC(N)=O)NC[C@H](N)C(N)=O)nc1C(=O)N[C@H](C(=O)N[C@H](C)[C@@H](O)[C@H](C)C(=O)N[C@H](C(=O)NCCc1nc(-c2nc(C(=O)NCCC[S+](C)C)cs2)cs1)[C@@H](C)O)[C@@H](O[C@@H]1O[C@@H](CO)[C@@H](O)[C@H](O)[C@@H]1O[C@H]1O[C@H](CO)[C@@H](O)[C@H](OC(N)=O)[C@@H]1O)c1c[nH]cn1.[Br-] [bleomycin A2]	specificity for dedifferentiated melanoma cells	–
C=CC(=O)Nc1cc2c(Nc3ccc(F)c(Cl)c3)ncnc2cc1OCCCN1CCOCC1 [canertinib]	specificity for dedifferentiated melanoma cells	–
C=C1[C@@H](C)[C@H]2[C@H](Cc3ccccc3)NC(=O)[C@]23OC(=O)/C=C/[C@H](O)CCC[C@@H](C)C/C=C/[C@H]3[C@@H]1O [cytochalasin B]	specificity for dedifferentiated melanoma cells	–
COC(=O)c1ccc2c(c1)NC(=O)/C2=C(\Nc1ccc(N(C)C(=O)CN2CCN(C)CC2)cc1)c1ccccc1 [nintedanib]	specificity for dedifferentiated melanoma cells	–
O=C(c1cc(Cc2n[nH]c(=O)c3ccccc23)ccc1F)N1CCN(C(=O)C2CC2)CC1 [olaparib]	specificity for dedifferentiated melanoma cells	–
COc1cc(/C=C/C(=O)N2CCC=CC2=O)cc(OC)c1OC [piperlongumine]	–	differentiation stage-associated trend in sensitivity ([2]; among subtypes and vemurafenib resistant lines): does not show any differentiation stage-associated trend; also recorded: no difference in sensitivity
COc1cc(Nc2ncc(F)c(Nc3ccc4c(n3)NC(=O)C(C)(C)O4)n2)cc(OC)c1OC [tamatinib]	specificity for dedifferentiated melanoma cells	–
AZD4547	specificity for dedifferentiated melanoma cells	–
ML334 diastereomer	specificity for dedifferentiated melanoma cells	–
TNFα	–	differentiation state (up-regulation of AXL, decreased MITF or MART-1) (melanoma cell lines [5]): induced de-differentiation
B1	–	differentiation state (up-regulation of AXL, decreased MITF or MART-1) (melanoma cell lines [5]): induced de-differentiation
